Several values for one entry are separate records, joined by “and”; a condition that tells them apart may be missing. Equal entries are not always repeated. Entries after “also recorded” stand apart in the source; their conditions may differ. Where two headings read alike, the source gives them in different places.
Legend:
[1] = system: peripheral T cells; assay: Proliferation of peripheral T cells (Ki67 staining) in immunized cynomolgus monkeys (FIG. 9B); format: in vivo, cynomolgus monkey; settings: 3 mg/kg daily, recall response phase, compared to immunization alone
Method: FIG. 9B. is a graph showing proliferation of peripheral T cells (Mean+/−SEM, % of predose) upon treatment with 0.1 and 3 mg/kg of Compound I-57 in cynomolgus monkeys.

[2] = biological target: T1, IKZF2 (Homo sapiens, UniProt Q96SW2+Q9UKS7); assay: IKZF2 degradation in primary human PBMCs; format: cell-based; design: endogenous in cells; host or cells: primary human PBMCs
T1 sequence (Q9UKS7 whole entry): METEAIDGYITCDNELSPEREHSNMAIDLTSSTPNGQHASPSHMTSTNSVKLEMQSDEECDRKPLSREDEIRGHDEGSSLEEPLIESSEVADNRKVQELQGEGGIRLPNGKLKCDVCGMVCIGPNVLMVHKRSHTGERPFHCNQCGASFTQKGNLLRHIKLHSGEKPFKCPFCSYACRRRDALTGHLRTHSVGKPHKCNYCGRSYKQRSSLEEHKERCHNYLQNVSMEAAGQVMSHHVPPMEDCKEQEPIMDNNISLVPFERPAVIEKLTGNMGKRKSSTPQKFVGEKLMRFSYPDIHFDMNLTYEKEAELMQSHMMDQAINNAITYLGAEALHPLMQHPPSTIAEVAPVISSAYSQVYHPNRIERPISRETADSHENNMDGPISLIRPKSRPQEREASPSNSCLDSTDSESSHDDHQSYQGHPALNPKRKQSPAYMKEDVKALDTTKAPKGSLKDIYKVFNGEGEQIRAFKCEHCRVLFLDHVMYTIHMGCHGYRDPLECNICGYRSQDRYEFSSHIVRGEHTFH
T1 sequence (Q96SW2 whole entry): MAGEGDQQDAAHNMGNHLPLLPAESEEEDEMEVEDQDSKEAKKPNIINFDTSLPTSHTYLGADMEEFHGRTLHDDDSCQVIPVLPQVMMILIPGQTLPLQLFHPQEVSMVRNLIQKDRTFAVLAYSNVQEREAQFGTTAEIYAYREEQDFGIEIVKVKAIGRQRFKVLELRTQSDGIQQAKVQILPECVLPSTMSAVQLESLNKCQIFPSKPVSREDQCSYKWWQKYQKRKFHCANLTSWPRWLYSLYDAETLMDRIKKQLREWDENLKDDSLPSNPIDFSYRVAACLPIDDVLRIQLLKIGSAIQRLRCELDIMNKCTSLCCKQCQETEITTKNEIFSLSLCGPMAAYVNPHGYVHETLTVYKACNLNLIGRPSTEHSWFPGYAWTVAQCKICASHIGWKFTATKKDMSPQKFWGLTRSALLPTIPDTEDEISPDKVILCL
T1 sequence (Q16531 whole entry partner): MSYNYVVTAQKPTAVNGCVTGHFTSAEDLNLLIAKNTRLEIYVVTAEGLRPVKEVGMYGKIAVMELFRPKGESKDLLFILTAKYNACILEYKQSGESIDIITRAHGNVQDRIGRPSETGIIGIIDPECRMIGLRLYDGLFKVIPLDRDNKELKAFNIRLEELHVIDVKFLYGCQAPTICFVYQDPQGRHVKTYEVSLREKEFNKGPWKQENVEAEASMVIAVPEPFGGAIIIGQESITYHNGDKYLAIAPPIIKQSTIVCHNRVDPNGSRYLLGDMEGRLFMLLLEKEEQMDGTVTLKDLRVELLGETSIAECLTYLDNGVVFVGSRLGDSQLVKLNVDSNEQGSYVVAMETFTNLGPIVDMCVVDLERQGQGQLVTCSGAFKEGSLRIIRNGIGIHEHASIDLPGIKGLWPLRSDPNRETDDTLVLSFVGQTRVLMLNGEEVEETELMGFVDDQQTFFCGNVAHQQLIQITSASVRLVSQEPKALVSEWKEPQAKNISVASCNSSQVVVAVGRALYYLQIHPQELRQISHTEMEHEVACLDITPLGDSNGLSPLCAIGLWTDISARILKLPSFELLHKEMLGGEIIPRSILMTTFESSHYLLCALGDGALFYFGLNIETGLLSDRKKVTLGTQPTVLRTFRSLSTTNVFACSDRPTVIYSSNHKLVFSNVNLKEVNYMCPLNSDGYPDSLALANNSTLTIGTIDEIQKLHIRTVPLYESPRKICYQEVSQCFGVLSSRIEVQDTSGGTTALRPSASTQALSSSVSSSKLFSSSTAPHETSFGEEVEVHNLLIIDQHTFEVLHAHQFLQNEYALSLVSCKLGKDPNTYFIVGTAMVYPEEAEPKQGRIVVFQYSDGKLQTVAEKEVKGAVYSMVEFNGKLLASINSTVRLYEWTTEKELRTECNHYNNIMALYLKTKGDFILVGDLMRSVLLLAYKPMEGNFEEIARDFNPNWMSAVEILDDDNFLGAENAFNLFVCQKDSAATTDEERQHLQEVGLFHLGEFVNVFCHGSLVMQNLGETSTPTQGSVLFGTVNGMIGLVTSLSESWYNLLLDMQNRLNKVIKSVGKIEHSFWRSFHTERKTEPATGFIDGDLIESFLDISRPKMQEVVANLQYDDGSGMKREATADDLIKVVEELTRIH
Excerpt: (§1) Although the specific transcriptional targets of IKZF2 remain to be defined, IKZF2 binds to and represses transcription from the IL-2 promoter region (Baine 2013). […] Finally, an in vitro assay recapitulating hallmarks of T cell dysfunction/exhaustion, by sequential TCR stimulation of isolated primary human T cells, was used to test the hypothesis that […] would rescue the exhausted phenotype and enhance Teff cell activity. […] In addition to IKZF1, other known cereblon substrates including translation termination factor G1 to S phase transition 1 (GSPT1) are not degraded by I-57 (FIG. 1).
I-57 mediated degradation of IKZF2 was assessed in primary PBMCs obtained from rabbit, dog, pig, cynomolgus monkey, and human, and in primary splenocytes of mouse and rat. […] Species-specificity due to species specific alteration CRBN primary structure have previously been described with other compounds known to interact with the CRBN ubiquitin ligase complex to elicit protein specific degradation (Krönke et al, 2015).

[3] = system: IL2 mRNA; assay: Upregulation of IL2 mRNA in TCR-stimulated Jurkat cells (FIG. 2B); format: cell-based; settings: increasing concentrations
Method: FIG. 2B is a graph showing the change upregulation of IL2 mRNA in TCR-stimulated Jurkat cells after IKZF2 degradation when cells were treated with increasing concentrations of Compound I-57.

[4] = biological target: T2, IKZF4 (Homo sapiens, UniProt Q96SW2+Q9H2S9); assay: IKZF4 degradation in vitro (FIG. 1); format: cell-based; settings: relative to IKZF2
T2 construct: prolabel (ProLabel enzyme-fragment tag); expressed in transfected cells; host or cells: HEK293T
T2 sequence (Q9H2S9 whole entry, the tested form may be a part): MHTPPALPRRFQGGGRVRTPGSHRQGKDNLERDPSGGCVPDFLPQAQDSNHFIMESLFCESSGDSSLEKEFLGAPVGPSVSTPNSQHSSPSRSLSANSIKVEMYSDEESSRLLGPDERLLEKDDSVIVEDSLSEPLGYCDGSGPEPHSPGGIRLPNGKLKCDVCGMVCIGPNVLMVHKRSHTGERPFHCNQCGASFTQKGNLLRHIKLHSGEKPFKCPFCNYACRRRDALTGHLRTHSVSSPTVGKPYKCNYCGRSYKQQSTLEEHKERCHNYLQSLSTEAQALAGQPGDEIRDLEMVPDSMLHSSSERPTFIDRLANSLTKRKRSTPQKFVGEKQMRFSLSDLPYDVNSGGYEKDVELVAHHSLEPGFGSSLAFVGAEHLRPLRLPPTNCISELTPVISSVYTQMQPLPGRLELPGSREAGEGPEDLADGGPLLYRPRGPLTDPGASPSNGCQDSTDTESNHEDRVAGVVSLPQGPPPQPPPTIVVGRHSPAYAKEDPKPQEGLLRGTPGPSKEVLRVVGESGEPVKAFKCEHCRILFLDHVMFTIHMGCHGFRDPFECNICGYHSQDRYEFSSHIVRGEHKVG
T2 sequence (Q96SW2 whole entry, the tested form may be a part): as the sequence (Q96SW2 whole entry) above
T2 sequence (Q16531 whole entry partner, the tested form may be a part): as the sequence (Q16531 whole entry partner) above
Excerpt: as §1

[5] = biological target: P-gp (Homo sapiens, UniProt P08183); assay: P-gp substrate assessment; format: in vitro ADME
P-gp, sequence (P08183 whole entry): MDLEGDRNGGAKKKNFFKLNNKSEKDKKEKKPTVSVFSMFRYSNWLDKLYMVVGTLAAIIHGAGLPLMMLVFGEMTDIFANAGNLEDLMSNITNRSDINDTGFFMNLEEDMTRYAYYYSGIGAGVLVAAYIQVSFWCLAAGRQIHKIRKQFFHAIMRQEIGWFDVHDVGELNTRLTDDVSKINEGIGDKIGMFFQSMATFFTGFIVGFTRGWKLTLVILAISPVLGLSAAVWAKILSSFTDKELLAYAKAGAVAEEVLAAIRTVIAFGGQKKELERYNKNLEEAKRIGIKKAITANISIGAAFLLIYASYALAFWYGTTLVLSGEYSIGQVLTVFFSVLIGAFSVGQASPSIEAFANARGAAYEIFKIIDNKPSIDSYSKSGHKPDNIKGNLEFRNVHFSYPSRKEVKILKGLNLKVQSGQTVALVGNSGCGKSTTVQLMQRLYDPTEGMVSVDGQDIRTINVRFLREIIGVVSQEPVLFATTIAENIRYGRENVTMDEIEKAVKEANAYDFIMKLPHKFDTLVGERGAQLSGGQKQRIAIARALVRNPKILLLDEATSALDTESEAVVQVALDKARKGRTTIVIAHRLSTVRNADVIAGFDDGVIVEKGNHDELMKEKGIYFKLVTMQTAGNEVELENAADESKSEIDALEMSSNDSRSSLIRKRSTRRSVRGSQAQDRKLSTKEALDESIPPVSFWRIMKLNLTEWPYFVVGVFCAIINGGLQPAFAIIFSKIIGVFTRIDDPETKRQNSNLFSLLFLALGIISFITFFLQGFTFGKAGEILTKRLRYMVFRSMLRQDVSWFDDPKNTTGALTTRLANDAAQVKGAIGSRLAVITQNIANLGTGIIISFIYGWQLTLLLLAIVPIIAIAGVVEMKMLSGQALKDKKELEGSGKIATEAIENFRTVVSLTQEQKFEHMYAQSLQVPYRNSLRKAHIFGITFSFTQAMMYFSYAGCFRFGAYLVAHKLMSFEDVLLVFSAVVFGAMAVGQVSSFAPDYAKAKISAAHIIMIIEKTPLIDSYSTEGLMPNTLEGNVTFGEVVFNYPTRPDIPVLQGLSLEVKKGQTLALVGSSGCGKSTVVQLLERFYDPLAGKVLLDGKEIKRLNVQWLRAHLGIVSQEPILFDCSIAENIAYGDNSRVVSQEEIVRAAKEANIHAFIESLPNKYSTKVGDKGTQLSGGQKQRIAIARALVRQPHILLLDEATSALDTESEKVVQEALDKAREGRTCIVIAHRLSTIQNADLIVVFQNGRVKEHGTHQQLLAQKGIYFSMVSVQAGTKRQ

[6] = system: primary human Tregs; assay: Suppression of Teff proliferation by in vitro expanded primary human Tregs; format: cell-based
[7] = system: IKZF2; assay: Single oral dose PD in cynomolgus monkey: IKZF2 expression in T cells from PBMCs by flow cytometry; format: in vivo
Method: (§2) The PK/PD relationship of I-57 was examined in cynomolgus monkeys after a single oral dose of 0.01, 0.1 or 1 mg/kg. I-57 plasma concentration and IKZF2 expression (as determined by flow cytometry) in FOXP3+ T cells from PBMCs were determined (FIG. 4 and FIG. 5).
Decreased (percentage change) IKZF2 positive […] cells, as determined by flow cytometry, were detectable at 4h post dose in the 1 mg/kg and 0.1 mg/kg groups, reaching maximum at 12-24 hrs post-dose and maintaining this maximum for 12-24 hrs.

[8] = Phototoxic potential
[9] = Blood-to-plasma ratio, human; format: in vitro ADME
Excerpt: The binding to plasma protein of I-57 in vitro was moderate in all species, with an observed difference between rodents (73% in mouse, 76% in rat) and non-rodents (52% in dog and monkey, 54% in human). Blood-to-plasma ratios were in the range of 0.7-1.8 (human 1.1-1.3). […] Based on results with non-radiolabeled I-57 in the dog, a significant amount of unchanged I-57 was renally eliminated (˜20% of dose).

[10] = Single oral dose PK in cynomolgus monkey; format: in vivo; settings: for Cmax / AUC(0-t): plasma; for Cmax / AUC(0-t) / AUC24 h/Dose / Cmax/Dose: unbound, n = 3, mean ± SD; for AUC(0-t): read-out: AUC24 h
Method: as §2

[11] = biological target: CYP2D6 (Homo sapiens, UniProt P10635); assay: CYP inhibition: CYP2D6; format: in vitro ADME
CYP2D6, sequence (P10635 whole entry): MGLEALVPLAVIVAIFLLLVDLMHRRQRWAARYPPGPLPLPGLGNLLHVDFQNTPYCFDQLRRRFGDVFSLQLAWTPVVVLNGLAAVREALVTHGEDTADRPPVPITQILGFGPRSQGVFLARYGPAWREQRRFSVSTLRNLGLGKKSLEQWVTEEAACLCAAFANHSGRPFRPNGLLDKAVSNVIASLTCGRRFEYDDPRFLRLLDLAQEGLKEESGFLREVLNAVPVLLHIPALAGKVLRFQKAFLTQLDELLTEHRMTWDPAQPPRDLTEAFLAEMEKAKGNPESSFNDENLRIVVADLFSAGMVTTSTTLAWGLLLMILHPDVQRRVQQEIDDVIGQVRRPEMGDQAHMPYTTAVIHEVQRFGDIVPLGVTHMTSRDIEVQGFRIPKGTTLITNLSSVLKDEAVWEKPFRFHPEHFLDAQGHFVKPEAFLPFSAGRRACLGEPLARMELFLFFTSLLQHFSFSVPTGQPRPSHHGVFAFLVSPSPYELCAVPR

[12] = biological target: T1, IKZF2; assay: Multi-dose PK/PD study in human PBMC adoptive transfer mouse model harboring MDA-MB231 xenografts: IKZF2 expression in human CD4+FOXP3+ regulatory T cells (FIG. 6, 7); format: in vivo; design: endogenous in cells; host or cells: primary human PBMCs; settings: 14 daily oral doses of 0.3, 1, 3 and 30 mg/kg, hPBMC AdT mouse model
Method: FIG. 6 is a pictorial representation of the multi-dose PK/PD study design in the human PBMC adoptive transfer mouse model harboring MDA-MB231 xenografts. Fourteen consecutive daily doses of Compound I-57 was administered at 0.3 mg/kg, 1 mg/kg, 3 mg/kg or 30 mg/kg.
FIG. 7 is a graph showing the change in the IKZF2 expression in human CD4+FOXP3+ regulatory T cells isolated from MDA-MB231 tumor xenografts (Tumor) or blood (Periphery) following 14 daily oral doses of 0.3, 1, 3 and 30 mg/kg Compound I-57 administered to the hPBMC AdT model.

In the case of `O=C1CCC(N2Cc3cc(C4CCN(Cc5ccccc5)CC4)ccc3C2=O)C(=O)N1` (stereo not drawn) [Compound I-57, 3-(5-(1-benzylpiperidin-4-yl)-1-oxoisoindolin-2-yl)piperidine-2,6-dione], the “proportion of proliferative peripheral T cells (Ki67 staining)” value [1] is reported as “increased”, the DC50 ([2]; human PBMC, read-out: AC50 for IKZF2 degradation (converted)) is reported as ~4 nM and ~4.07 nM and the “degradation of IKZF2” value ([2]; primary human PBMCs in vitro) is reported as “potent degradation; also recorded: Degradation was observed”. The “IL-2 mRNA expression” value [3] was “expressed more IL-2 mRNA in a dose-dependent manner”, the “degradation of IKZF4” value [4] was “less potency than IKZF2” and the P-gp substrate status [5] was “P-gp substrate”. For the same compound, the “IKZF2 protein level in Treg cells” value ([6]; primary human Tregs expanded in vitro) was “reduced proportionally to the I-57 dose”, the “capacity of Tregs to suppress Teff proliferation” value ([6]; primary human Tregs expanded in vitro in the presence of I-57) was “reduced capacity to suppress Teff proliferation” and the “duration for which maximum decrease of IKZF2 positive cells was maintained” value ([7]; single oral dose) was 12 to 24 h. For the same compound, the “recovery of IKZF2 positive cells” value ([7]; single oral dose 1 mg/kg) was “total recovery was not achieved by day 7 post-dose”, the “time at which decreased IKZF2 positive cells were detectable” value ([7]; single oral dose, 1 mg/kg and 0.1 mg/kg groups, flow cytometry) was 4 h and the “time to maximum decrease of IKZF2 positive cells” value ([7]; single oral dose, post-dose) was 12 to 24 h. For the same compound, the phototoxic potential [8] was “no genotoxic or phototoxic potential”, the blood plasma ratio [9] was 1.1 to 1.3 and the Cmax ([10]; single oral dose 0.01 mg/kg) was 2.11 ± 0.69 ng/mL. For the same compound, the AUC(0-t) ([10]; single oral dose 0.01 mg/kg) was 14.1 ± 4.72 ng·h/mL, the Cmax ([10]; single oral dose 0.1 mg/kg) was 13.4 ± 2.77 ng/mL and the AUC(0-t) ([10]; single oral dose 0.1 mg/kg) was 102 ± 13.2 ng·h/mL. For the same compound, the Cmax ([10]; single oral dose 1 mg/kg) was 102 ± 45.3 ng/mL, the AUC(0-t) ([10]; single oral dose 1 mg/kg) was 610 ± 236 ng·h/mL and the “dose proportionality of exposure” value ([10]; single oral dose 0.01, 0.1 or 1 mg/kg) was “slightly less than dose proportional”. For the same compound, the “AUC24 h/Dose” value ([10]; single oral dose 0.01 mg/kg) was 1410 ± 472 (ng · h/mL)/(mg/kg), the Cmax/Dose ([10]; single oral dose 0.01 mg/kg) was 211 ± 69.1 (ng/mL)/(mg/kg) and the “AUC24 h/Dose” value ([10]; single oral dose 0.1 mg/kg) was 1020 ± 136 (ng · h/mL)/(mg/kg). For the same compound, the Cmax/Dose ([10]; single oral dose 0.1 mg/kg) was 134 ± 27.7 (ng/mL)/(mg/kg), the “AUC24 h/Dose” value ([10]; single oral dose 1 mg/kg) was 610 ± 236 (ng · h/mL)/(mg/kg) and the Cmax/Dose ([10]; single oral dose 1 mg/kg) was 102 ± 45.3 (ng/mL)/(mg/kg). For the same compound, the IC50 [11] was roughly 65000 nM, the “IKZF2 degradation (reduction of the percentage of IKZF2 positive Tregs)” value ([12]; peripheral blood) was “robust dose and exposure-dependent IKZF2 degradation” and the “IKZF2 degradation (reduction of the percentage of IKZF2 positive Tregs)” value ([12]; tumor (MDA-MB231 xenografts)) was “robust dose and exposure-dependent IKZF2 degradation”.
